Experimental data: ChEMBL document CHEMBL1136926 (J Med Chem, 2009)
Calls of active or inactive are those of the source. The calls are words filed in the database; no cut-off is given here. Positions of bridges follow the written chain, without caps; N, C: chain ends. Non-standard residues stand in square brackets, D forms with d. Residues, ends and D or L forms follow the SMILES beside them. dPen = CC(C)(S)[C@@H](N)C(=O)O; Orn = NCCC[C@H](N)C(=O)O

Assays:
[1] = target: T1, Urotensin-2 receptor (Rattus norvegicus) (UniProt P49684); conditions: Albino, Aorta
T1 sequence (whole entry): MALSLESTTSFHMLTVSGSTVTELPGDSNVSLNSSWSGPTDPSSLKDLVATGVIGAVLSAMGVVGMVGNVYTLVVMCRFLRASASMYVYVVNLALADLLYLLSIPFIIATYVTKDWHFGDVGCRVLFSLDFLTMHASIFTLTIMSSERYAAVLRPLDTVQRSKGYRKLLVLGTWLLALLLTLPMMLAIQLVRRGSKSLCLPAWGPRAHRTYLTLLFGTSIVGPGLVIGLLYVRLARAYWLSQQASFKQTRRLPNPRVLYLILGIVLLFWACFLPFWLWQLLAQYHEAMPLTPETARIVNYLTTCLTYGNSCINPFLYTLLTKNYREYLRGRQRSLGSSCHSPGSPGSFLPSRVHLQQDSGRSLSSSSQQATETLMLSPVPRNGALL
Description: Agonist activity at UT2 receptor in Albino rat aorta assessed as induction of aortic contraction

[2] = target: T1, Urotensin-2 receptor (Rattus norvegicus); assay: Antagonist activity at UT2 receptor in Albino rat aorta assessed as inhibition of […] aortic contraction; type: functional, tissue-based

For `CC(C)[C@H](NC(=O)[C@@H]1CSSC(C)(C)[C@@H](NC(=O)[C@@H](N)CC(=O)O)C(=O)N[C@@H](Cc2ccccc2)C(=O)N[C@H](Cc2c[nH]c3ccccc23)C(=O)N[C@@H](CCCN)C(=O)N[C@@H](Cc2ccc(O)cc2)C(=O)N1)C(=O)O` (H-D[dPen]F[dW][Orn]YCV-OH; disulfide 2-7), the pEC50 [1] was “inactive” and the pKb [2] was 8.3.
